Results taken from publication PMC11351612, “Heteronuclear Complexes with Promising Anticancer Activity against Colon Cancer” (Biomedicines, 2024).

Tests used:
Caco-2/TC7 cells [1] = assay: Annexin V/propidium iodide apoptosis assay, Caco-2/TC7; format: cell-based, human; details: Caco-2/TC7, IC50 concentration; vehicle 12%
Protocol: (§1) Study of cell death. After the appropriate incubation, cells were collected and stained with annexin V-FTIC, according to the manufacturer’s instructions. A negative control was prepared, containing unreacted cells to define the basal level of apoptotic and necrotic or dead cells. After incubation, the cells were transferred to flow-cytometry tubes and washed twice with temperate phosphate-buffered saline (PBS), suspended in 100 μL annexin V binding buffer (10 mM Hepes/NaOH, pH 7.4, 140 mM NaCl, 2.5 mM CaCl2), then 5 μL of annexin V-FITC, and 5 μL of PI was added to each 100 μL of cell suspension. After incubation for 15 min at room temperature in the dark, 400 μL of 1× annexin binding buffer was added and analysed by flow cytometry within one hour. The signal intensity was measured using a FACSARIA BD and analysed using FASCDIVA BD.
(§2) This inhibition of apoptosis produces a fast growth and proliferation of cancerous cells. The population of early and late apoptotic cells increased to 35% after treatment with complex 1 in comparison with the vehicle-treated cells (12%). […] Additionally, the effect observed after treating the cells with a dosage equal to the IC50 concentration is time-dependent. […]

Caco-2/TC7 cells [2] = assay: Cell cycle analysis (PI, flow cytometry), Caco-2/TC7; format: cell-based, human; details: Caco-2/TC7, IC50 concentration, 48 h and 72 h
Protocol: (§3) Cell cycle analysis. After treatment, the cells were fixed in 70% ice-cold ethanol and stored at 4 °C for 24 h. After centrifugation, the cells were rehydrated in PBS (phosphate-buffered saline) and stained with propidium iodide (PI, 50 μg/mL) solution containing RNase A (100 μg/mL). PI-stained cells were analysed for DNA content in a FACSARRAY BD equipped with an argon ion laser. […] Cell cycle distribution was determined on a linear scale. The percentage of cells in cycle phases was determined using MODIFIT 3.0 verity software.
(§4) To investigate the influence of the heteronuclear derivative 1 on the cell cycle distribution of Caco-2 cells, propidium iodide-stained cells were analysed by flow cytometry. The distribution of cells found in each stage of the cell cycle for the control samples was sufficiently homogeneous (Figure 4). For both cell lines, samples analysed after 48 h of incubation had 22% of the cells in the G0/G1 phase, ca. 45% of cells in the synthesis phase, and approximately 30% of cells undergoing the G2 phase or cell division. The low percentage of cells observed in the G0 and G1 phases may be indicative of elevated proliferation and an uncontrolled growth of cancerous cells. It would be of interest to ascertain whether the complexes chosen for the treatments could arrest the cell cycle at phases preceding cell division, thereby inhibiting the proliferation of cancer cells.

[3] = system: pIRES2-EGFP (5308 pb) plasmid DNA; assay: Gel electrophoretic mobility of plasmid DNA; format: binding; details: metal-to-base pair ratios 0.5, 1, 2; 0.8% agarose gel
Protocol: Adducts with pIRES2-EGFP (5308 pb) plasmid DNA (Catalog #6029-1) were prepared by adding the required volume of a freshly prepared solution of metal complexes in MilliQ water. The concentration of pIRES2-EGFP in the reaction mixture was 117 ng/µL, and the complexes’ concentration was varied to give different metal-to-base pair stoichiometries (0.5, 1 and 2). The mobility of the metal complex-treated pIRES2-EGFP samples was analysed by gel electrophoresis on a 0.8% (w/v) agarose gel (Boehringer-Mannheim, Mannheim, Germany) at […] at 25 °C in Tris-acetate/EDTA buffer. The gel was stained for 30 min in […] (w/v) ethidium bromide and the bands were visualised with a UVP gel scanner.
In addition, the interaction of both complexes with DNA was also studied by their ability to modify the electrophoretic mobility of the pIRES2-EGFP (5308 pb) plasmid DNA and compared to cisplatin (Figure 7).

[4] = Solubility in water at 25 °C
Caco-2/PD7 cells [5] = assay: Cell cycle analysis (PI, flow cytometry), Caco-2/PD7; format: cell-based, human; details: Caco-2/PD7, IC50 concentration, 72 h
Protocol: as §3, §4

Caco-2/PD7 cells [6] = assay: Annexin V/propidium iodide apoptosis assay, Caco-2/PD7; format: cell-based, human; details: Caco-2/PD7, IC50 concentration, 72 h; control 35.8%
Protocol: as §1, §2

[7] = system: thioredoxin reductase (TrxR); details: undifferentiated Caco-2/TC7, IC50 concentration, 24 h incubation
Protocol: The Caco-2 cell line (TC7 clone) was seeded in a 25 cm^2 flask (2 × 10^6). […] The procedural guidelines of the supplied kit were followed. […] The outcomes were presented as a percentage representing the TrxR activity relative to the control.

Caco-2/TC7 = assay: Intracellular ROS generation (DCFH-DA); format: cell-based, human; details: IC50 concentration, monitored 3 h
Protocol: Measurement of intracellular ROS generation. The production of ROS was measured in Caco-2/TC7 seeded at a 4000 cells/well concentration in a 96-well plate, as described above. After 24 h, the culture growth medium was removed and cells were washed with PBS 1× and incubated with 20 µM DCFH-DA (Sigma-Aldrich) (100 µL/well) at 37 °C for 45 min in the dark. Afterwards, cells were washed with PBS 1× and then incubated with the tested compounds at their IC50 concentration or with 500 µM of H2O2 for the positive control. The fluorescent emission of DCF was monitored at 530 nm right after the addition of the complexes for 3 h using a microplate reader (λex = 485 nm), measuring every 15 min. The temperature was maintained at 37 °C during the experiment.
It is important to study the effect caused by ROS production upon the treatment of cells with metallic complexes, as it could indicate TrxR (thioredoxin reductase) inhibition and induction of apoptosis. Thus, the production of hydrogen peroxide in Caco-2 cells upon treatment with IC50 concentrations of complexes 1 and 2 has been studied. The method based on the H2O2-sensitive fluorescent probe DCFH-DA (2′-7′dichlorofluorescin diacetate) has been used. […]

Substance: [Cu{Au(Spy)(PTA)}2]PF6 [compound 1]
- Population of early and late apoptotic cells (Caco-2/TC7 cells [1]): 35%
- Effect on cell cycle distribution (Caco-2/TC7 cells [2]): arrest of the cell cycle in Caco-2/TC7 cells within the G0/G1 phases
- Effect on electrophoretic mobility of plasmid DNA [3]: significant effect on the mobility
- S 25 °C, H2O [4]: < 0.5 g/L
- Effect on cell cycle distribution (Caco-2/PD7 cells [5]): not enough living cells being found for the analysis
- Apoptotic cells (early + late apoptosis) (Caco-2/PD7 cells [6]): 62.4%
- Effect on TrxR activity [7]: inhibited TrxR activity
- H2O2 / ROS formation (DCF fluorescence vs vehicle-treated cells) (Caco-2/TC7): more markedly
